{"source": "patent US12577273B2", "about": "“Small molecule modulators of gut bacterial bile acid metabolism” (priority 2019, dated 2026)", "key": {"[1]": {"test_system": "three Gram negative and three Gram positive strains of human gut bacteria", "assay": "BSH inhibition in growing cultures of six gut bacterial strains (overall statements)", "format": "cell-based", "conditions": "100 μM inhibitor, 100 μM conjugated bile acid mixture"}, "B. theta cultures": {"test_system": "B. theta cultures", "assay": "BSH inhibition in growing B. theta cultures, single substrate (GUDCA or TUDCA)", "format": "cell-based, Bacteroides thetaiotaomicron", "conditions": "10 μM inhibitor, 100 μM GUDCA"}, "B. theta BSH [2]": {"molecular_target": "T1, B. theta BSH (Bacteroides thetaiotaomicron, UniProt Q8A600)", "assay": "Compound 7 kinetic studies (time to complete inhibition)", "format": "biochemical", "procedure": "Formation of deconjugated bile acid was measured using a UPLC-MS-based assay and reported as % conversion.\nCompound 7 Kinetic Studies. […] B. theta BSH (200 nM) was added to a pool of 100 μM bile acid pool and 100 μM 7. 500 μL aliquots were removed at indicated time points and flash frozen in liquid nitrogen. […] Procedure was repeated with 8.2 mM TUDCA."}, "B. adolescentis BSH": {"test_system": "B. adolescentis BSH", "assay": "Target validation and off-target profiling in B. adolescentis using 7-N3", "format": "cell-based, Bifidobacterium adolescentis L2-32", "conditions": "decreasing concentrations of 7 for 1 h, then 10 μM 7-N3", "procedure": "Target Validation and Off-target Profiling in B. adolescentis using 7-N3. Pilot studies with 7-N3 were performed using B. adolescentis (Gram positive) and B. theta (Gram negative). We chose to use B. adolescentis due to the stronger total fluorescent signal detected by-in gel fluorescence. […] Cultures were allowed to grow anaerobically at 37° C. for 21 h. 10 μM 7-N3 (10 mM stock in DMSO) or […] DMSO (to control tubes) was then added to the cultures and incubated anaerobically at 37° C. for 1 h. The cultures were centrifuged at 2,500 g at 4° C. for 15 mins. The media was decanted and cells were resuspended in PBS containing 1 mM TCEP and 1 mM PMSF and centrifuged 4,200 rpm at 4° C. for 15 mins. The buffer was decanted and the cells were suspended in 300 μL of fresh buffer and transferred to homogenizing tubes (Precellys lysing kit tough micro-organism lysing VK05 tubes) with ceramic beads. The suspension was then homogenized (5000 speed for 90 s*2, 6500 speed for 60 s) and spun down for 20 min at 15,000 g at 4° C. The supernatant was removed and the concentration of proteins in the lysate was quantified by Bradford assay. The lysates were then subjected to click reaction as per “Click Chemistry for In-gel Fluorescence Imaging” for fluorescence imaging and “Click Chemistry for MS/MS on Bacterial Lysate” for mass spectrophotometer-based quantification and identification.\nCultures were allowed to grow anaerobically at 37° C. for 21 h. Decreasing concentrations of 7 were added to different tubes and the cultures were incubated anaerobically at 37° C. for 1 h. 10 μM 7-N3 was then added to the cultures and incubated anaerobically at 37° C. for an additional hour. The cultures were further processed as per the reported method in “Target Validation and Off-target Profiling in B. adolescentis using 7-N3” and “Click Chemistry for In-gel Fluorescence Imaging”.\nClick Chemistry for In-gel Fluorescence Imaging. Click reactions were performed on 25 μL scale. Lysates (normalized to 1.5 mg/mL for both bacterial and mammalian cells) pretreated with 10 μM Compound 7-N3 were incubated with 100 μM fluor 488-alkyne (10 mM stock in DMSO), 100 μM CuBr (5 mM stock in DMSO), and 100 μM Tris[(1-benzyl-1H-1,2,3-triazol-4-yl)methyl]amine (5 mM stock in 4:1 t-BuOH:DMSO) for 1 h at 37° C. in the dark. 10 μL of 2×Laemmli buffer (containing 5% β-mercaptoethanol) was added to the reactions and the tubes were heated at 95° C. for 10 mins. 15 μL of the protein samples were then resolved by 10% SDS-PAGE. The ladder was diluted 100-fold and 10 μL was loaded. Gels were destained for 30 mins using 40% methanol, 50% acetic acid, 10% water and visualized using Bio-Rad ChemiDoc MP Imaging System. Gels were stained for 20 mins in Coomassie blue and destained for 2 h prior to imaging.\nClick Chemistry for MS/MS on Bacterial Lysate. Click reactions were performed on 100 μL scale. Lysates (normalized to 1.3 mg/mL) pretreated with 10 μM 7-N3 were incubated with 100 μM desthiobiotin-PEG4-alkyne (10 mM stock in DMSO), 1 mM CuBr (50 mM stock in DMSO), and 1 mM Tris[(1-benzyl-1H-1,2,3-triazol-4-yl)methyl]amine (50 mM stock in 4:1 t-BuOH:DMSO) for 1 h at 37° C. The samples were then processed for further analysis as per “Proteomic Analysis of Click-Tagged Proteins”.\nProteomic Analysis of Click-Tagged Proteins."}, "[3]": {"test_system": "differentiated Caco-2 cells"}, "B. theta BSH KO strain": {"test_system": "B. theta BSH KO strain", "assay": "Incubation with BSH-deleted B. theta strain", "conditions": "100 μM inhibitor"}, "B. theta": {"test_system": "B. theta", "assay": "Determination of IC50 of compound 7 in B. theta cultures"}, "B. theta BSH [4]": {"molecular_target": "T1, B. theta BSH", "assay": "Inhibitor screen using rBSH, B. theta BSH (UPLC-MS % deconjugation)"}, "[5]": {"test_system": "three Gram negative and three Gram positive strains of human gut bacteria", "assay": "Growth (OD600) and cell viability (CFU/mL) of the six gut bacterial strains", "conditions": "100 μM inhibitor"}, "[6]": {"conditions": "Supplementary FIG. 3a, 5 hours, 100 μM inhibitor, 200 nM rBSH, bile acid pool, replicates 1-3"}}, "note": "“Also recorded” adds a separate entry of the source. Where two headings read alike, the source gives them in different places.", "data": [{"smiles": "C[C@H](CCC(=O)CF)[C@H]1CC[C@H]2[C@@H]3[C@H](O)C[C@@H]4C[C@H](O)CC[C@]4(C)[C@H]3CC[C@]12C", "note": "[Compound 7]", "values": [{"measurement": "deconjugation / BSH inhibition in cultures of the six bacterial strains (in words)", "setting": "[1]", "result": "almost no deconjugation"}, {"measurement": "deconjugation / BSH inhibition in cultures of the six bacterial strains (in words)", "setting": "[1]; listed as compound 7", "result": "almost no detectable deconjugation"}, {"measurement": "deconjugation of GUDCA in growing B. theta cultures (in words)", "setting": "B. theta cultures", "result": "nearly complete inhibition of deconjugation"}, {"measurement": "time to complete inhibition of B. theta BSH", "setting": "B. theta BSH [2]; 100 μM 7 equimolar to substrate, no preincubation", "result": "≤ 15", "unit": "s"}, {"measurement": "time to entire inhibition of B. theta BSH activity", "setting": "B. theta BSH [2]; large excess (~80-fold) of substrate (8.2 mM TUDCA)", "result": "≤ 15", "unit": "min"}, {"measurement": "competition of 7 with 7-N3 for labeling of B. adolescentis BSH", "setting": "B. adolescentis BSH", "result": "dose-dependent labeling"}, {"measurement": "epithelial monolayer integrity (passive diffusion of 4 kDa FITC-dextran)", "setting": "[3]", "result": "did not compromise epithelial monolayer integrity"}, {"measurement": "bactericidal effect on BSH-deleted B. theta (CFUs after 24 h)", "setting": "B. theta BSH KO strain", "result": "not found to be bactericidal"}, {"measurement": "effect on bile acid pools with B. theta BSH KO strain", "setting": "B. theta BSH KO strain; 100 μM taurine conjugated pool, 24 h", "result": "did not alter bile acid pools"}, {"measurement": "IC50", "setting": "B. theta; Bacteroides thetaiotaomicron, 48 h, read-out: IC50 against B. theta (growing culture), 100 μM TUDCA, 48 h anaerobic growth", "result": 913, "unit": "nM"}, {"measurement": "IC50", "setting": "B. theta; read-out: IC50 against B. theta (growing culture), 100 μM TUDCA, 48 h anaerobic growth", "result": 1070, "unit": "nM"}, {"measurement": "% deconjugation of TβMCA", "setting": "B. theta BSH [4]; FIG. 2a, 2 hours, 100 μM inhibitor, 200 nM rBSH, bile acid pool, replicates 1-3", "result": 0.00, "unit": "%"}, {"measurement": "% deconjugation of TβMCA", "setting": "B. theta BSH [4]; FIG. 2a, 21 hours, 100 μM inhibitor, 200 nM rBSH, bile acid pool, replicates 1-3", "result": 0.00, "unit": "%"}, {"measurement": "% deconjugation of TCA", "setting": "B. theta BSH [4]; [6]", "result": 0.00, "unit": "%"}, {"measurement": "% deconjugation of TβMCA", "setting": "B. theta BSH [4]; [6]", "result": 0.00, "unit": "%"}, {"measurement": "inhibition at 100 µM", "setting": "B. theta BSH [4]; read-out: inhibition of B. theta BSH activity for 21 hours", "result": "> 98", "unit": "%"}, {"measurement": "effect on bacterial cell viability (CFU/mL, plated at 21 h)", "setting": "[5]", "result": "not bactericidal; also recorded: did not significantly affect the cell viability of the majority of the tested strains"}, {"measurement": "effect on bacterial growth (OD600 at 24 hours)", "setting": "[5]", "result": "did not significantly impact the growth"}, {"measurement": "effect on bacterial growth (OD600 at 24 hours)", "setting": "[5]; listed as compound 7", "result": "not bactericidal"}]}]}
